Patent US20150376235A1, “Peptides for the Treatment of Immune Reconstitution Inflammatory Syndrome (IRIS) and Related Diseases” (priority 2014, published 2015)
Non-standard residues stand in square brackets, D forms with d. No end group written: not given here.

Key:
CCR2 (MCP-1) = target: T1, CCR2 (MCP-1) (Homo sapiens, UniProt P41597); experiment: CCR2 (MCP-1) elicited chemotaxis of human monocytes, all-D-pentapeptides (FIG. 4); type: cell-based; conditions: 20 pM peptide 30 minutes; MCP-1 0.6 nM, 2 hours
T1 construct: Purified human monocytes were treated with 20 pM of All-D-pentapeptides for 30 minutes; endogenous in cells; host or cells: purified human monocytes
T1 sequence (P41597 whole entry): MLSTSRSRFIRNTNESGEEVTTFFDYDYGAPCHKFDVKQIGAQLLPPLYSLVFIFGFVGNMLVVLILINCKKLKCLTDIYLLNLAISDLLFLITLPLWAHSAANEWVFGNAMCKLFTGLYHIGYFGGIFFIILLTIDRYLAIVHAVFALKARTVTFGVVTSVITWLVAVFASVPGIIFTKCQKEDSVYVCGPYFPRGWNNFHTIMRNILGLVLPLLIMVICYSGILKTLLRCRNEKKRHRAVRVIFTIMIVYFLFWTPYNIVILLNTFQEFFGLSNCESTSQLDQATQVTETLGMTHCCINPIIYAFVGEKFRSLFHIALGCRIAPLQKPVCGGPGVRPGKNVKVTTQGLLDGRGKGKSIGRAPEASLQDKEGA
Method: Purified human monocytes were treated with 20 pM of All-D-pentapeptides for 30 minutes prior to chemotaxis against human MCP-1 (0.6 nM) for 2 hours. […] A representative experiment is shown comprising triplicate determinations and is presented as relative fluorescence units, Mean±SEM.

CCL2 (MCP-1) = target: T2, CCL2 (MCP-1) (Homo sapiens, UniProt P41597); experiment: Blocking CCL2 (MCP-1) chemotaxis at low concentration (FIG. 3); type: cell-based; conditions: compounds at 10^−14 M
T2 construct: endogenous in cells; host or cells: human monocytes
T2 sequence (P41597 1-360 isoform P41597-2): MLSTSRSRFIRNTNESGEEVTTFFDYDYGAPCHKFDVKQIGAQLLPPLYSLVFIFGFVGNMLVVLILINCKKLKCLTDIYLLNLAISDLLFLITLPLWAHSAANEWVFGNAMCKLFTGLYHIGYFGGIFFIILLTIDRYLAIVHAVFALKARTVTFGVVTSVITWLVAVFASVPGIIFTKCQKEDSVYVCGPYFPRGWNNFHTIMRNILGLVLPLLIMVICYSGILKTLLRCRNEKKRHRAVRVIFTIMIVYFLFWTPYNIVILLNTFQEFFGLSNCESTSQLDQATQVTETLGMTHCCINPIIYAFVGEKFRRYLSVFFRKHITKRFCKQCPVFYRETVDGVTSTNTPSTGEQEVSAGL
Excerpt: FIG. 3 illustrates the effects of several all-D amino acid peptides in blocking CCL2 (MCP-1) chemotaxis at low concentration. The amino acid sequences of these peptides are: SSTYR (SEQ ID NO:3), TTSYT (SEQ ID NO:4) and NTSYR (SEQ ID NO:7)
In order to show the generalizability of the all-D-amino acid modifications we synthesized additional examples and tested them for antagonism of chemokines receptors implicated in the subject diseases, FIG. 3
Additional All-D-(Pepntapeptides) from V2 Region Block CCR5/CCR2 Human Monocyte Chemotaxis
In FIG. 3, the effects of RAPs in blocking CCL2 (MCP-1) chemotaxis was illustrated.

MCP-1/CCR2 = target: T3, MCP-1/CCR2 (Homo sapiens, UniProt P41597); experiment: MCP-1/CCR2 elicited β-integrin-mediated adhesion of human monocytes to human fibronectin (FIG. 5); type: cell-based; conditions: 10 minutes pretreatment
T3 construct: endogenous in cells; host or cells: human monocytes
T3 sequence (P41597 whole entry): as the sequence (P41597 whole entry) above
Method: The results are of interest as approved treatments for MS include the immunosupressive monoclonal antibody therapy “Tysabri”, which blocks T cell binding to cellular integrins, and thereby infiltration of inflammatory cells into brains of MS patients.
All-D-(IDNYT) Inhibition of Human Monocyte and THP-1 Cell β-Integrin-Mediated Adhesion to hu-Fibronectin
Human monocytes were treated with the indicated doses of all-D-(IDNYT) for 10 minutes prior to adherence to the β-integrin human fibronectin. Data is the average of two separate experiments, conducted with triplicate determinations. Data are presented as Mean±SEM of the normalized adherence response from two experiments. The IC50 for inhibition of MCP-1 stimulated adherence was generated using a nonlinear inhibition curve fit in GraphPad Prism Version 5.0.

[1] = test system: inflammatory cytokines, chemokines, and receptors; conditions: Rat; oral gavage 0.05-1 mg/kg, 7 days; cited from earlier work
CCR5 = CCR5 (Homo sapiens, UniProt P51681); conditions: 30 min pretreatment; human MIP-1β 50 ng/mL, 90 min; cited from earlier work
Chain of CCR5 (P51681 whole entry): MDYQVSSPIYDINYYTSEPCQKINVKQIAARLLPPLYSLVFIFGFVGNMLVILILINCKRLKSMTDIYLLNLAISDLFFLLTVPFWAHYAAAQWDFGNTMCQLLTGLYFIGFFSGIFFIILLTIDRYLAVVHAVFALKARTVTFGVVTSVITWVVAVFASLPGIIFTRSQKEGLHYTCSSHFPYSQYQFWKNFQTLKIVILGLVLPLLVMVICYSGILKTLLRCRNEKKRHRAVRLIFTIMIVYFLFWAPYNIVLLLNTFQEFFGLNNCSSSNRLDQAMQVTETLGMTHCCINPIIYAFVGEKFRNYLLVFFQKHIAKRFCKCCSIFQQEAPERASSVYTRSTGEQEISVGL

[2] = Pharmacokinetic study following intravenous and oral administration, LC-MS/MS of plasma; type: in vivo, male Sprague Dawley rat
Method: A pharmacokinetic study of all-D [TTNYT] (RAP-103) (SEQ ID NO:2) following intravenous and oral administration was conducted at a target dose level of 1 mg/kg in the male Sprague Dawley rat. The concentration of RAP-103 in each plasma and brain sample was measured using a suitable LC-MS/MS assay. The assay used was a research grade assay (RGA-1) which was established by assessing the accuracy, precision and the linearity of the method. Plasma concentrations generated were used to evaluate the pharmacokinetic parameters of all-D-TTNYT (RAP-103).
The dose formulation was administered intravenously to multiple animals as a slow bolus over ca 30 s via the tail vein and to a different group of animals orally via gastric gavage at a target dose volume of 1 mL/kg, to achieve a target dose level of 1 mg/kg. The dose volume administered was calculated according to the bodyweight of the animal on the day of dosing. The weight of administered dose was recorded. […] Results expressed as ng/mL

[3] = test system: rats with partial ligation of the sciatic nerve; conditions: cited from earlier work
[4] = test system: inflammatory cytokines, chemokines, and receptors; conditions: Rat; oral gavage 0.05-1 mg/kg, 7 days
Excerpt: The specific experimental details are provided in Padi, 2012.

CCR2 = CCR2 (Homo sapiens, UniProt P41597); conditions: 30 min pretreatment; human MCP-1 50 ng/mL, 90 min; cited from earlier work
Chain of CCR2 (P41597 whole entry): as the sequence (P41597 whole entry) above

inflammatory cytokines = conditions: Hu; cited from earlier work
TLR4 = TLR4 (human, UniProt O00206 24-839); experiment: cell-based or functional assay
Chain of TLR4 (O00206 24-839): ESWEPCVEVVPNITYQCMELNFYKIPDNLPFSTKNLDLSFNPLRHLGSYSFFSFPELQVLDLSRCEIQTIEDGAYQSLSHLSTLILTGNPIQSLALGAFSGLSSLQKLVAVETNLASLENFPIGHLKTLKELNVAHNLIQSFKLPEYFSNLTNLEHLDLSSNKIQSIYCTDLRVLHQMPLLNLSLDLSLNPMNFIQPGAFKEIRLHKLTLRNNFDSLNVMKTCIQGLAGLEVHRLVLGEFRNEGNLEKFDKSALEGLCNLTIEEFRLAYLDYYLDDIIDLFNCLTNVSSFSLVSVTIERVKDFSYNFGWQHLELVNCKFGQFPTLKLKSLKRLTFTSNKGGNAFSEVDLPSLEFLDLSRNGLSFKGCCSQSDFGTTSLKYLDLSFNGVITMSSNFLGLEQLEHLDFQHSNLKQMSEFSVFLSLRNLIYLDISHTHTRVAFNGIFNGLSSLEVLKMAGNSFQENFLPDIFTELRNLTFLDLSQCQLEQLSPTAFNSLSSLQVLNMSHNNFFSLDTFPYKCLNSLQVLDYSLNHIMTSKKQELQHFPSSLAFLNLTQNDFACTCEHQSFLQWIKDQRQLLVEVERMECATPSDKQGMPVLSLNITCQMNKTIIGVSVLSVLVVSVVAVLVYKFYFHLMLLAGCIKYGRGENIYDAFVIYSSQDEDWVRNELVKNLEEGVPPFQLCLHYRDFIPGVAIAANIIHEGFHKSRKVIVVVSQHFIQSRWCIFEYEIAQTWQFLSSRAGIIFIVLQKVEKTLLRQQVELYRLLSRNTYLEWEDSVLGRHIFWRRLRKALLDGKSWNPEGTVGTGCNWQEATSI

NTRYR
inhibition of CCR2 (MCP-1) elicited chemotaxis (CCR2 (MCP-1)): potently block

TTSYT ([dT][dT][dS][dY][dT])
blocking CCL2 (MCP-1) chemotaxis (CCL2 (MCP-1)): retain potency

NTSYR ([dN][dT][dS][dY][dR])
blocking CCL2 (MCP-1) chemotaxis (CCL2 (MCP-1)): retain potency

IDNYT ([dI][dD][dN][dY][dT])
blocking of MCP-1 elicited adhesion to human fibronectin (MCP-1/CCR2): potently blocking
inhibition of CCR2 (MCP-1) elicited chemotaxis (CCR2 (MCP-1)): potently block

ETWYS ([dE][dT][dW][dY][dS])
inhibition of CCR2 (MCP-1) elicited chemotaxis (CCR2 (MCP-1)): potently block

C[C@H](O)[C@@H](N)C(=O)N[C@@H](C(=O)N[C@H](CC(N)=O)C(=O)N[C@H](Cc1ccc(O)cc1)C(=O)N[C@@H](C(=O)O)[C@H](C)O)[C@H](C)O [RAP-103, All-D-TTNYT]
IL-1β change [1]: decrease
IL-6 change [1]: decrease
blocking of MIP-1β-elicited chemotaxis (CCR5): potently blocking
time of peak levels in plasma ([2]; 1 mg/kg, male rat): 10 to 15 min
tolerability of dose administrations ([2]; intravenous and oral, 1 mg/kg, male rat): well tolerated
level at 0.25 h ([2]; male, Sprague-Dawley, rat, plasma, po, 1 mg/kg, oral 1 mg/kg, 0.25 h, individual animals 004M, 005M, 006M, read-out: plasma concentration): 6.42 ng/mL
level at 0.5 h ([2]; male, Sprague-Dawley, rat, plasma, po, 1 mg/kg, oral 1 mg/kg, 0.5 h, individual animals 004M, 005M, 006M, read-out: plasma concentration): 10.2 ng/mL
level at 2 h ([2]; male, Sprague-Dawley, rat, plasma, po, 1 mg/kg, oral 1 mg/kg, 2 h, individual animals 004M, 005M, 006M, read-out: plasma concentration): 12 ng/mL
level at 4 h ([2]; male, Sprague-Dawley, rat, plasma, po, 1 mg/kg, oral 1 mg/kg, 4 h, individual animals 004M, 005M, 006M, read-out: plasma concentration): 9.09 ng/mL
level at 8 h ([2]; male, Sprague-Dawley, rat, plasma, po, 1 mg/kg, oral 1 mg/kg, 8 h, individual animals 004M, 005M, 006M, read-out: plasma concentration): 6.67 ng/mL
plasma concentration ([2]; oral 1 mg/kg, male rat, 0.083 h, individual animals 004M, 005M, 006M): <LLOQ
plasma concentration ([2]; oral 1 mg/kg, male rat, 0.25 h, individual animals 004M, 005M, 006M, 1 mg/kg): <LLOQ
plasma concentration ([2]; oral 1 mg/kg, male rat, 1 h, individual animals 004M, 005M, 006M): <LLOQ
plasma concentration ([2]; oral 1 mg/kg, male rat, 2 h, individual animals 004M, 005M, 006M, 1 mg/kg): <LLOQ
plasma concentration ([2]; oral 1 mg/kg, male rat, 4 h, individual animals 004M, 005M, 006M, 1 mg/kg): <LLOQ
plasma concentration ([2]; oral 1 mg/kg, male rat, 8 h, individual animals 004M, 005M, 006M, 1 mg/kg): <LLOQ
plasma concentration ([2]; oral 1 mg/kg, male rat, 12 h, individual animals 004M, 005M, 006M): <LLOQ
already established hypersensitivity ([3]; 0.2-1 mg/kg, days 8 to 12): reverses
development of thermal hyperalgesia ([3]; oral 0.05-1 mg/kg for 7 days): inhibits the development
mechanical allodynia ([3]; oral 0.05-1 mg/kg for 7 days): fully prevents
monocyte infiltration ([3]; peripheral nerve injury): reduce
spinal microglial activation ([3]; peripheral nerve injury): reduce
CCL2 change [4]: decrease
CCL3 change [4]: decrease
CCR2 change [4]: decrease
CCR5 change [4]: decrease
MCP-1 change [4]: decrease
MIP-1α change [4]: decrease
TNFα change [4]: decrease
blocking of MCP-1-elicited chemotaxis (CCR2): potently blocking

D-ala1-peptide T-amide [RAP-101]
IL-1 change (inflammatory cytokines): decrease
IL-6 change (inflammatory cytokines): decrease
IL-8 change (inflammatory cytokines): decrease
TNFα change (inflammatory cytokines): decrease

NTSYG ([dN][dT][dS][dY]G; not fully specified (residue 5))
inhibition of CCR2 (MCP-1) elicited chemotaxis (CCR2 (MCP-1)): potently block

SSTYR ([dS][dS][dT][dY][dR])
blocking CCL2 (MCP-1) chemotaxis (CCL2 (MCP-1)): retain potency

[dT][dT][dN][dY][dT] [all-D[TTNYT] (RAP-103)]
IC50 for inhibition of LPS-induced TNFα production in monocyte-derived iDC (TLR4): ~0.1 pM
